Experimental data reported in patent US9943569B2, “Method for preventing or reducing postoperative pulmonary complications” (OSAKA UNIVERSITY, priority 2015, dated 2018).

Columns and labels:
Type in all cases: in vivo, human
[1] = Plasma ghrelin concentration (enzyme immunoassay), randomized placebo-controlled phase II study
Description: (§1) Forty patients with primary esophageal cancer who underwent esophagectomy were selected to participate in a randomized, placebo-controlled phase II study. The patients were selected based on the following eligibility criteria: (1) thoracic esophageal cancer treated by performing radical esophagectomy with gastric tube reconstruction; (2) age 20 to 75 years; (3) adequate functioning of major organs; (4) no other active malignancies; and (5) provision of written informed consent. The following exclusions criteria were used: (1) preoperative diagnosis of esophageal cancer invasion to the aorta or trachea and other organs; (2) patients with multiple cancer; (3) severe respiratory problems, such as emphysema; (4) patients with prior ischemic heart disease; (5) liver cirrhosis or active hepatitis; (6) renal failure requiring dialysis treatment; (7) poorly controlled diabetes mellitus or disease requiring insulin treatment; (8) consecutive use of steroids; and (9) mental disorder. The patients were randomly divided into a ghrelin group and a placebo group at a 1:1 ratio. The approach for thoracic manipulation (i.e., open or thoracoscopic surgery) was used as the only stratification factor. Group allocation was performed before the initiation of surgery. The study was performed in a double-blind manner, and an independent researcher assessed outcomes.
(§2) The primary endpoint of this study was SIRS duration. The secondary endpoints were postoperative complications, serum C-reactive protein (CRP) and IL-6 levels, time required to attain a positive nitrogen balance, and changes in body weight and body composition. Postoperative complications were defined as adverse events caused by surgery. Patients received an intravenous continuous infusion of ghrelin (0.5 μg/kg/h) or placebo (pure saline) for 5 days postoperatively. Ghrelin was diluted to a final volume of 48 mL with saline, and the solution was administered at a rate of 2 mL/h by using an infusion pump through a central venous catheter inserted into the right subclavian vein. The same amount of ghrelin was administered via intravenous infusion during the 5 days of treatment; the dose was calculated on the basis of body weight on the day before surgery. Patients in the placebo group received the corresponding infusion containing pure saline using same procedure.
(§3) Blood sampling was performed at the following 7 time points: before surgery; 2 hours after initiation of surgery (during thoracotomy); 4 hours after initiation of surgery (during laparotomy); and on PODs 1, 3, 7, and 10. Complete blood count was performed every day for at least 10 PODs. If the leukocyte count was not within the normal range on POD10, complete blood counts were performed daily until it was within the normal range for 3 consecutive days. SIRS was diagnosed according to the criteria proposed by the American College of Chest Physicians/Society of Critical Care Medicine Consensus Conference^32 and when 2 or more of the following criteria were present: (1) body temperature less than 36° C. or more than 38° C.; (2) heart rate more than 90 beats per minute; (3) tachypnea with more than 20 breaths per minute or an arterial partial pressure of carbon dioxide less than 32 mm Hg; and (4) white blood cell count less than 4000 cells/mm^3, >12,000 cells/mm^3, or an immature (band) form more than 10%. Postoperative complications were evaluated according to the Clavien-Dindo classification.^33 Grade I required no treatment, grade II required medical therapy, grade Ma required interventions but not general anesthesia, grade Mb required general anesthesia, grade IV represented life-threatening states that required intensive care, and grade V represented death.
Sampled blood was immediately transferred into a chilled glass tube containing disodium ethylenediaminetetraacetic acid for plasma sampling or a separating agent for serum sampling, and the samples were then centrifuged at 4° C. […]

[2] = system: patients undergoing esophagectomy; test: Postoperative complications according to the Clavien-Dindo classification
Description: as §1, §2, §3

[3] = system: patients undergoing esophagectomy; test: Changes in body weight and body composition (dual-energy X-ray absorptiometry); conditions: preoperatively vs POD10
Procedure: Dual-energy X-ray absorptiometry (Hologic QDR-2000; Hologic Inc, Waltham, Mass.) was used to assess total body composition, including lean body weight and fat body weight, of all participants.^35 These measurements were performed preoperatively and 10 days postoperatively with the subject in the supine position.
However, in the postoperative test, rapid turnover proteins used as nutritional markers, such as, transthyretin, transferrin, and retinol binding protein, were more highly retained in the ghrelin group than in the placebo group. This finding is consistent with the findings in previous studies that ghrelin prevented nutritional deterioration. […] We compared changes in weight and body composition between the 2 groups. During the study period, changes in body weight were monitored as a percentage of the weight on admission (preoperation).

[4] = system: patients undergoing esophagectomy; test: Adverse events attributable to ghrelin administration in the phase II study; conditions: during the study period; 0.5 μg/kg/h continuous i.v. for 5 days, n=20
Procedure: as §2
In total, 40 enrolled patients were randomized into either the ghrelin group (20 patients) or the placebo group (20 patients). All patients received the planned dose of ghrelin or placebo during the planned period. […]

[5] = system: patients after esophagectomy; test: Phase I study of ghrelin administration during the postoperative period after esophagectomy
[6] = ghrelin 0.5 μg/kg/h continuous i.v. for 5 days, n=20
[7] = dual-energy X-ray absorptiometry

CCCCCCCC(=O)OC[C@H](NC(=O)[C@H](CO)NC(=O)CN)C(=O)N[C@@H](Cc1ccccc1)C(=O)N[C@@H](CC(C)C)C(=O)N[C@@H](CO)C(=O)N1CCC[C@H]1C(=O)N[C@@H](CCC(=O)O)C(=O)N[C@@H](Cc1cnc[nH]1)C(=O)N[C@@H](CCC(N)=O)C(=O)N[C@@H](CCCNC(=N)N)C(=O)N[C@H](C(=O)N[C@@H](CCC(N)=O)C(=O)N[C@@H](CCC(N)=O)C(=O)N[C@@H](CCCNC(=N)N)C(=O)N[C@@H](CCCCN)C(=O)N[C@@H](CCC(=O)O)C(=O)N[C@@H](CO)C(=O)N[C@@H](CCCCN)C(=O)N[C@@H](CCCCN)C(=O)N1CCC[C@H]1C(=O)N1CCC[C@H]1C(=O)N[C@@H](C)C(=O)N[C@@H](CCCCN)C(=O)N[C@@H](CC(C)C)C(=O)N[C@@H](CCC(N)=O)C(=O)N1CCC[C@H]1C(=O)N[C@@H](CCCNC(=N)N)C(=O)O)C(C)C [ghrelin]
Total ghrelin ([1]; Postoperative (POD7)): 60.2 ± 34.1 imol/mL | Total ghrelin ([1]; Preoperative (baseline)): 106.6 ± 76.8 imol/mL | level at time molar at 2 h ([1]; human, plasma, iv, 0.5 ug/kg/h, 2 hours after the start of injection, 0.5 μg/kg/h continuous i.v. infusion): 0.743 ± 0.191 nM | level at time molar at 4 h ([1]; human, plasma, iv, 0.5 ug/kg/h, 4 hours after the start of injection, 0.5 μg/kg/h continuous i.v. infusion): 0.711 ± 0.146 nM | level at time molar at 1 postoperative day ([1]; human, plasma, iv, 0.5 ug/kg/h, POD1, during infusion 0.5 μg/kg/h): 0.749 ± 0.143 nM | level at time molar at 3 postoperative day ([1]; human, plasma, iv, 0.5 ug/kg/h, POD3, during infusion 0.5 μg/kg/h): 0.737 ± 0.199 nM | level at time molar at 7 postoperative day ([1]; human, plasma, iv, 0.5 ug/kg/h, POD7, after administration of ghrelin): 0.0602 ± 0.0341 nM | level at time molar at 10 postoperative day ([1]; human, plasma, iv, 0.5 ug/kg/h, POD10, after administration of ghrelin): 0.063 ± 0.031 nM | level at time molar ([1]; human, plasma, iv, 0.5 ug/kg/h, before ghrelin administration (baseline), ghrelin group n=20): 0.107 ± 0.0768 nM | Anastomotic leak, number of patients ([2]; Grade 0, n=20): 19 | Arrhythmia, number of patients ([2]; Grade 0, n=20): 19 | Bleeding, number of patients ([2]; Grade 0, n=20): 20 | Lymphorrhea, number of patients ([2]; Grade 0, n=20): 20 | Pneumonia, atelectasis, number of patients ([2]; Grade 0, n=20): 14 | Recurrent nerve paralysis, number of patients ([2]; Grade 0, n=20): 18 | Wound infection, number of patients ([2]; Grade 0, n=20): 19 | Anastomotic leak, number of patients ([2]; Grade I, II, n=20): 1 | Arrhythmia, number of patients ([2]; Grade I, II, n=20): 1 | Bleeding, number of patients ([2]; Grade I, II, n=20): 0 | Lymphorrhea, number of patients ([2]; Grade I, II, n=20): 0 | Pneumonia, atelectasis, number of patients ([2]; Grade I, II, n=20): 4 | Recurrent nerve paralysis, number of patients ([2]; Grade I, II, n=20): 2 | Wound infection, number of patients ([2]; Grade I, II, n=20): 1 | Anastomotic leak, number of patients ([2]; Grade III, IV, n=20): 0 | Arrhythmia, number of patients ([2]; Grade III, IV, n=20): 0 | Bleeding, number of patients ([2]; Grade III, IV, n=20): 0 | Lymphorrhea, number of patients ([2]; Grade III, IV, n=20): 0 | Pneumonia, atelectasis, number of patients ([2]; Grade III, IV, n=20): 2 | Recurrent nerve paralysis, number of patients ([2]; Grade III, IV, n=20): 0 | Wound infection, number of patients ([2]; Grade III, IV, n=20): 0 | Postoperative complications of higher than grade 1 (Clavien-Dindo), number of patients [2, 6]: 10 | Postoperative complications of higher than grade 1 (Clavien-Dindo), share of patients [2, 6]: 50% | incidence of pulmonary complications, including postoperative pneumonia and atelectasis, versus placebo group ([2]; ghrelin 0.5 μg/kg/h continuous i.v. for 5 days, P=0.016): significantly lower | percent decrease in total weight [3]: −3.5±2.7% | percent decrease in body fat weight [3, 7]: −3.2±5.0% | percent decrease in lean body weight [3, 7]: −4.2%±3.0 | adverse events attributable to ghrelin administration [4]: No adverse events attributable to ghrelin administration were observed | systemic inflammation relative to conventional management protocols without ghrelin [5]: tended to be suppressed | effect on fundamental vital signs (blood pressure, heart rate, urine output, pulmonary and liver function) ([5]; postoperative intensive care management): did not affect fundamental vital signs
